{"source": "patent US6048854A", "about": "“2,3-diaminopropionic acid derivative” (Sumitomo Pharmaceuticals Company, Limited, priority 1993, dated 2000)", "tested_on": "platelet aggregation", "assay": "Platelet aggregation inhibitory activity (ADP-induced, human platelet rich plasma)", "type": "cell-based", "protocol": "The blood was collected from the elbow vein of a normal volunteer with mixing thereof with 1/10 volume of 3.8% sodium citrate, and the blood was centrifuged at 1000 rpm (150 g) for 10 minutes to give the supernatant as platelet rich plasma (PRP). To PRP (200 μl) was added a test compound solution (2 μl), and the mixture was incubated with stirring at 1000 rpm at 37° C. for two minutes, and thereto was added a platelet aggregator, adenosine diphosphate (ADP, 22 μl) at a final concentration of 3 μg/ml. The platelet aggregation activity was determined by nephelometric analysis using a Hematracer (manufactured by Niko Bioscience, Ltd.). The test results of platelet aggregation inhibitory activity are expressed by IC50, which is a concentration of the test compound being required to inhibit the platelet aggregation reaction by 50%.\nThe compounds of Examples 18 to 70 were tested in the same manner as in Example 17.\nThe compounds of Examples 72 to 116 were tested in the same manner as in Example 17.", "key": {"[1]": {"settings": "Homo sapiens, Table 2, same manner as Example 17"}, "[2]": {"settings": "Table 1, human PRP, ADP 3 μg/ml, 37° C."}, "[3]": {"settings": "Homo sapiens, Table 3, same manner as Example 17"}}, "data": [{"smiles": "CCCCS(=O)(=O)N[C@@H](CNC(=O)CCCOc1ccc(C(=N)N)cc1)C(=O)O", "note": "[Example 56, (2S)-3-(4-(4-amidinophenoxy)butanoylamino)-2-butanesulfonylaminopropanoic Acid]", "values": [{"measurement": "IC50", "setting": "[1]", "result": 90, "unit": "nM"}]}, {"smiles": "CCCCS(=O)(=O)N[C@@H](CNC(=O)CNC(=O)CCCCCC1CCNCC1)C(=O)O", "note": "[Example 8, (2S)-2-butanesulfonylamino-3-(N-(6-(4-piperidyl)hexanoyl)glycylamino)propanoic Acid]", "values": [{"measurement": "IC50", "setting": "[2]", "result": 583, "unit": "nM"}]}, {"smiles": "CCCCS(=O)(=O)N[C@@H](CNC(=O)CCCCOc1ccc(C(=N)N)cc1)C(=O)O", "note": "[Example 65, (2S)-3-(5-(4-amidinophenoxy)pentanoylamino)-2-butanesulfonylaminopropanoicAcid]", "values": [{"measurement": "IC50", "setting": "[1]", "result": 79, "unit": "nM"}]}, {"smiles": "O=C(CCC1CCNCC1)NCCC(=O)NC[C@H](NS(=O)(=O)c1ccc(Cl)cc1)C(=O)O", "note": "[Example 36, (2S)-2-(4-chloro)benzenesulfonylamino-3-(3-(3-(4-piperidyl)propanoylamino)propanoylamino)propanoic Acid]", "values": [{"measurement": "IC50", "setting": "[1]", "result": 62, "unit": "nM"}]}, {"smiles": "COc1cc(C)c(S(=O)(=O)N[C@@H](CNC(=O)CCNC(=O)CCC2CCNCC2)C(=O)O)c(C)c1C", "note": "[Example 46, (2S)-2-(4-methoxy-2,3,6-trimethyl)benzenesulfonylamino-3-(3-(3-(4-piperidyl)propanoylamino)propanoylamino)propanoic Acid]", "values": [{"measurement": "IC50", "setting": "[1]", "result": 32, "unit": "nM"}]}, {"smiles": "CCCCS(=O)(=O)N[C@@H](CNC(=O)CNC(=O)[C@H](C)NC(=O)CCC1CCNCC1)C(=O)O", "note": "[Example 15, (2S)-2-butanesulfonylamino-3-(N-(3-(4-piperidyl)propanoyl)-L-alanylglycylamino)propanoic Acid]", "values": [{"measurement": "IC50", "setting": "[2]", "result": 5240, "unit": "nM"}]}, {"smiles": "Cc1ccccc1S(=O)(=O)N[C@@H](CNC(=O)CCNC(=O)CCC1CCNCC1)C(=O)O", "note": "[Example 24, (2S)-2-(2-methyl)benzenesulfonylamino-3-(3-(3-(4-piperidyl)propanoylamino)propanoylamino)propanoic Acid]", "values": [{"measurement": "IC50", "setting": "[1]", "result": 30, "unit": "nM"}]}, {"smiles": "Cc1ccc(S(=O)(=O)N[C@@H](CNC(=O)CCNC(=O)CCC2CCNCC2)C(=O)O)cc1", "note": "[Example 26, (2S)-2-(4-methyl)benzenesulfonylamino-3-(3-(3-(4-piperidyl)propanoylamino)propanoylamino)propanoic Acid]", "values": [{"measurement": "IC50", "setting": "[1]", "result": 29, "unit": "nM"}]}, {"smiles": "O=C(CCC1CCNCC1)NCCC(=O)NC[C@H](NS(=O)(=O)c1ccc(Br)cc1)C(=O)O", "note": "[Example 37, (2S)-2-(4-bromo)benzenesulfonylamino-3-(3-(3-(4-piperidyl)propanoylamino)propanoylamino)propanoic Acid]", "values": [{"measurement": "IC50", "setting": "[1]", "result": 48, "unit": "nM"}]}, {"smiles": "O=C(CCNC(=O)COC1CCNCC1)NC[C@H](NS(=O)(=O)c1ccccc1)C(=O)O", "note": "[Example 55, (2S)-2-benzenesulfonylamino-3-(3-(2-(4-piperidyloxy)ethanoylamino)propanoylamino)propanoic Acid]", "values": [{"measurement": "IC50", "setting": "[1]", "result": 300, "unit": "nM"}]}, {"smiles": "COc1ccc(C[C@H](NC(=O)CCC2CCNCC2)C(=O)NCC(=O)NC[C@H](NS(C)(=O)=O)C(=O)O)cc1", "note": "[Example 16, (2S)-2-methanesulfonylamino-3-(N-(3-(4-piperidyl)propanoyl)-O-methyl-L-tyrosylglycylamino)propanoic Acid]", "values": [{"measurement": "IC50", "setting": "[2]", "result": 2530, "unit": "nM"}]}, {"smiles": "CCc1ccc(S(=O)(=O)N[C@@H](CNC(=O)CCNC(=O)c2ccc(C(=N)N)cc2)C(=O)OCOC(=O)C(C)(C)C)cc1", "note": "[Example 116, (2S)-3-(3-(4-amidinobenzoylamino)propanoylamino)-2-(4-ethyl)benzenesulfonylaminopropanoic Acid Pivaloyloxymethyl Ester]", "values": [{"measurement": "IC50", "setting": "[3]", "result": 103, "unit": "nM"}]}, {"smiles": "CCc1ccc(S(=O)(=O)N[C@@H](CNC(=O)CCNC(=O)CCC2CCNCC2)C(=O)O)cc1", "note": "[Example 38, (2S)-2-(4-ethyl)benzenesulfonylamino-3-(3-(3-(4-piperidyl)propanoylamino)propanoylamino)propanoic Acid]", "values": [{"measurement": "IC50", "setting": "[1]", "result": 35, "unit": "nM"}]}, {"smiles": "CCCCCCNC(=N)c1ccc(C(=O)NCCC(=O)NC[C@H](NS(=O)(=O)c2ccccc2)C(=O)O)cc1", "note": "[Example 104, (2S)-2-benzenesulfonylamino-3-(3-(4-(N-n-hexylamidino)benzoylamino)propanoylamino)propanoic Acid]", "values": [{"measurement": "IC50", "setting": "[3]", "result": 28, "unit": "nM"}]}, {"smiles": "CCS(=O)(=O)N[C@@H](CNC(=O)CCNC(=O)CCC1CCNCC1)C(=O)O", "note": "[Example 44, (2S)-2-ethanesulfonylamino-3-(3-(3-(4-piperidyl)propanoylamino)propanoylamino)propanoic Acid]", "values": [{"measurement": "IC50", "setting": "[1]", "result": 263, "unit": "nM"}]}, {"smiles": "CNC(=N)c1ccc(OCCCC(=O)NC[C@H](NS(=O)(=O)c2ccccc2)C(=O)O)cc1", "note": "[Example 107, (2S)-2-benzenesulfonylamino-3-(4-(4-(N-methylamidino)phenoxy)butanoylamino)propanoic Acid]", "values": [{"measurement": "IC50", "setting": "[3]", "result": 29, "unit": "nM"}]}, {"smiles": "N=C(N)c1ccc(CCCCC(=O)NC[C@H](NS(=O)(=O)c2cccc3ccccc23)C(=O)O)cc1", "note": "[Example 88, (2S)-3-(5-(4-amidinophenyl)pentanoylamino)-2-(1-naphthalene)sulfonylaminopropanoic Acid]", "values": [{"measurement": "IC50", "setting": "[3]", "result": 44, "unit": "nM"}]}, {"smiles": "CCCS(=O)(=O)N[C@@H](CNC(=O)CCNC(=O)CCC1CCNCC1)C(=O)O", "note": "[Example 45, (2S)-3-(3-(3-(4-piperidyl)propanoylamino)propanoylamino)-2-propanesulfonylaminopropanoic Acid]", "values": [{"measurement": "IC50", "setting": "[1]", "result": 121, "unit": "nM"}]}, {"smiles": "Cc1cccc(S(=O)(=O)N[C@@H](CNC(=O)CCNC(=O)CCC2CCNCC2)C(=O)O)c1", "note": "[Example 25, (2S)-2-(3-methyl)benzenesulfonylamino-3-(3-(3-(4-piperidyl)propanoylamino)propanoylamino)propanoic Acid]", "values": [{"measurement": "IC50", "setting": "[1]", "result": 22, "unit": "nM"}]}, {"smiles": "O=C(CCC1CCNCC1)NCCC(=O)NC[C@H](NS(=O)(=O)c1ccc(C(F)(F)F)cc1)C(=O)O", "note": "[Example 29, (2S)-3-(3-(3-(4-piperidyl)propanoylamino)propanoylamino)-2-(4-trifluoromethyl)benzenesulfonylaminopropanoic Acid]", "values": [{"measurement": "IC50", "setting": "[1]", "result": 170, "unit": "nM"}]}, {"smiles": "N=C1NCCc2cc(OCCCC(=O)NC[C@H](NS(=O)(=O)c3ccccc3)C(=O)O)ccc21", "note": "[Example 111, (2S)-2-benzenesulfonylamino-3-(4-(6-(1-imino-1,2,3,4-tetrahydroisoquinolyl)oxy)butanoylamino)propanoic Acid]", "values": [{"measurement": "IC50", "setting": "[3]", "result": 41, "unit": "nM"}]}, {"smiles": "O=C(CCC(=O)NC[C@H](NS(=O)(=O)c1ccccc1)C(=O)O)NCCC1CCNCC1", "note": "[Example 6, (2S)-2-benzenesulfonylamino-3-(N-(2-(4-piperidyl)ethyl)succinamylamino)propanoic Acid]", "values": [{"measurement": "IC50", "setting": "[2]", "result": 376, "unit": "nM"}]}, {"smiles": "CC(C)c1ccc(S(=O)(=O)N[C@@H](CNC(=O)CCNC(=O)CCC2CCNCC2)C(=O)O)cc1", "note": "[Example 50, (2S)-2-(4-isopropyl)benzenesulfonylamino-3-(3-(3-(4-piperidyl)propanoylamino)propanoylamino)propanoic Acid]", "values": [{"measurement": "IC50", "setting": "[1]", "result": 203, "unit": "nM"}]}, {"smiles": "CCCCS(=O)(=O)N[C@@H](CNC(=O)CNC(=O)[C@H](C)N(C)C(=O)CCC1CCNCC1)C(=O)O", "note": "[Example 7, (2S)-2-butanesulfonylamino-3-(N-(3-(4-piperidyl)propanoyl)-N-methyl-L-alanylglycylamino)propanoic Acid]", "values": [{"measurement": "IC50", "setting": "[2]", "result": 1220, "unit": "nM"}]}, {"smiles": "O=C(CCC1CCNCC1)NCCC(=O)NC[C@H](NS(=O)(=O)c1cccc2ccccc12)C(=O)O", "note": "[Example 41, (2S)-2-(1-naphthalene)sulfonylamino-3-(3-(3-(4-piperidyl)propanoylamino)propanoylamino)propanoic Acid]", "values": [{"measurement": "IC50", "setting": "[1]", "result": 35, "unit": "nM"}]}, {"smiles": "COc1ccc(S(=O)(=O)N[C@@H](CNC(=O)CCCCc2ccc(C(=N)N)cc2)C(=O)O)cc1", "note": "[Example 66, (2S)-3-(5-(4-amidinophenyl)pentanoylamino)-2-(4-methoxy)benzenesulfonylaminopropanoic Acid]", "values": [{"measurement": "IC50", "setting": "[1]", "result": 16, "unit": "nM"}]}, {"smiles": "N=C(NCc1ccccc1)c1ccc(C(=O)NCCC(=O)NC[C@H](NS(=O)(=O)c2ccccc2)C(=O)O)cc1", "note": "[Example 106, (2S)-2-benzenesulfonylamino-3-(3-(4-(N-benzylamidino)benzoylamino)propanoylamino)propanoic Acid]", "values": [{"measurement": "IC50", "setting": "[3]", "result": 116, "unit": "nM"}]}, {"smiles": "COc1cccc2c(S(=O)(=O)N[C@@H](CNC(=O)CCNC(=O)CCC3CCNCC3)C(=O)O)cccc12", "note": "[Example 72, (2S)-2-(5-methoxy-1-naphthalene)sulfonylamino-3-(3-(3-(4-piperidyl)propanoylamino)propanoylamino)propanoic Acid]", "values": [{"measurement": "IC50", "setting": "[3]", "result": 52, "unit": "nM"}]}, {"smiles": "CCc1ccc(S(=O)(=O)N[C@@H](CNC(=O)CCCCc2ccc(C(=N)N)cc2)C(=O)O)cc1", "note": "[Example 89, (2S)-3-(5-(4-amidinophenyl)pentanoylamino)-2-(4-ethyl)benzenesulfonylaminopropanoic Acid]", "values": [{"measurement": "IC50", "setting": "[3]", "result": 26, "unit": "nM"}]}, {"smiles": "N=C(N)c1ccc(OCCCC(=O)NC[C@H](NS(=O)(=O)c2ccccc2N)C(=O)O)cc1", "note": "[Example 84, (2S)-3-(4-(4-amidinophenoxy)butanoylamino)-2-(2-amino)benzenesulfonylaminopropanoic Acid]", "values": [{"measurement": "IC50", "setting": "[3]", "result": 22, "unit": "nM"}]}, {"smiles": "CCCCS(=O)(=O)N[C@@H](CNC(=O)CNC(=O)[C@H](Cc1ccc(OC)cc1)NC(=O)CCC1CCNCC1)C(=O)O", "note": "[Example 14, (2S)-2-butanesulfonylamino-3-(N-(3-(4-piperidyl)propanoyl)-O-methyl-L-tyrosylglycylamino)propanoic Acid]", "values": [{"measurement": "IC50", "setting": "[2]", "result": 6140, "unit": "nM"}]}, {"smiles": "O=C(CCC1CCNCC1)NCCC(=O)NC[C@H](NC(=O)OCc1ccccc1)C(=O)O", "note": "[Example 4, (2S)-2-Benzyloxycarbonylamino-3-(3-(3-(4-piperidyl)propanoylamino)propanoylamino)propanoic Acid]", "values": [{"measurement": "IC50", "setting": "[2]", "result": 513, "unit": "nM"}]}, {"smiles": "CCc1ccc(S(=O)(=O)N[C@@H](CNC(=O)CCN(C)C(=O)c2ccc(C(=N)N)cc2)C(=O)O)cc1", "note": "[Example 97, (2S)-3-(3-(4-amidinobenzoylmethylamino)propanoylamino)-2-(4-ethyl)benzenesulfonylaminopropanoic Acid]", "values": [{"measurement": "IC50", "setting": "[3]", "result": 49, "unit": "nM"}]}]}
